Read-outs that look alike come from different tables or passages of the source.
What was measured:
[1] = tested on: HBV viral load, AD38 cells; test: Activity of test compounds on viral production from AD38 cells (viral load by quantitative PCR of the core sequence in supernatant); type: cell-based, Hepatitis B virus; conditions: 10 μM compound, 6 days at 37° C., vs DMSO control wells; for activity at 10 µM: Hepatitis B virus, 144 h, read-out: AD38 Viral Load (CpAM/DMSO %) at 10 μM
Procedure: (§1) AD38 cells were then re-suspended with 10 mL of treatment medium and counted. Wells of a collagen coated 96-well NUNC microtiter plate were seeded at 50,000/well in 180 μL of treatment medium, and 20 μL of either 10% DMSO (Control) or a 10× solution of test compound in 10% DMSO in treatment media was added for a final compound concentration 1, 3, or 10 μM (1.0% final [DMSO]) and plates were incubated for 6 days at 37° C.
Subsequently viral load production was assayed by quantitative PCR of the core sequence. Briefly, 5 μL of clarified supernatant was added to a PCR reaction mixture that contained forward primers HBV-f 5′-CTGTGCCTTGGGTGGCTTT-3′, Reverse primers HBV-r 5′-[…]-3′ and Fluorescent TaqMan™ Probes HBV-probe 5′-FAM/AGCTCCAAA/ZEN/[…]/3IABkFQ-3′ in Quanta Biosciences PerfeCTa® qPCR Toughmix®, and was subsequently on an Applied Biosystems VIIA7 in a final volume of 20 μL. The PCR mixture was incubated at 45° C. for 5 minutes, then 95° C. for 10 min, followed by 40 cycles of 10 seconds at 95° C. and 20 seconds at 60° C. Viral load was quantitated against known standards by using ViiA™ 7 Software. Viral load in the supernatant from wells with treated cells were compared against viral load in supernatant from DMSO control wells (≥3 per plate).

AD38 cells = test: AD38 viability normalized to DMSO control; type: cell-based; conditions: 10 μM compound, vs DMSO control
Procedure: as §1

Compound | activity at 10 µM ([1]; Table 9) [%] | AD38 Viability Normalized Result (CPAM/DMSO %) at 10 μM (AD38 cells; Table 9) [%] | activity at 10 µM ([1]; Table 6) [%] | AD38 Viability Normalized Result (CPAM/DMSO %) at 10 μM (AD38 cells; Table 6) [%] | AD38 Viral Load (CpAM/DMSO %) at 10 μM ([1]; Table 9) [%]
Cc1cc(Nc2ccc(F)cc2)nc(N2CCN(S(=O)(=O)c3ccc(OCCN4CCOCC4)cc3)CC2)n1 [Compound 1383, N-(4-fluorophenyl)-6-methyl-2-(4-((4-(2-morpholinoethoxy)phenyl)sulfonyl)piperazin-1-yl) pyrimidin-4-amine] | 14 | 94 | – | – | –
COc1ccc(S(=O)(=O)N2CCN(c3nc(Nc4ccc(C)cc4)cc(-n4ccnc4)n3)CC2)cc1 [Compound 1229] | – | – | 13 | 92 | –
Cc1cc(Nc2ccc(F)cc2)nc(N2CCN(S(=O)(=O)c3ccc(O[C@H](C)C(=O)O)cc3)CC2)n1 [Compound 1395, (R)-2-(4-((4-(4-((4-fluorophenyl)amino)-6-methylpyrimidin-2-yl)piperazin-1-yl)sulfonyl)phenoxy) propanoic acid] | 42 | 98 | – | – | –
Cc1ccc(S(=O)(=O)N2CCN(c3nc(Nc4ccc(F)cc4)cc(C(F)(F)F)n3)CC2)cc1 [Compound 1344] | 2 | 0 | – | – | –
N#Cc1ccc(Nc2cc(-c3cncs3)nc(N3CCN(S(=O)(=O)c4ccccc4)CC3)n2)cc1 [Compound 1374] | 7 | 107 | – | – | –
Cc1ccc(Nc2cc(C)nc(N3CCN(S(=O)(=O)c4ccc5[nH]c(=O)[nH]c5c4)CC3)n2)cc1 [Compound 1167] | – | – | 36 | 108 | –
Cc1ccc(Nc2cc(C)nc(N3CCN(S(=O)(=O)c4cnc(N)nc4)CC3)n2)cc1 [Compound 1260] | – | – | 78 | 98 | –
COc1ccc(S(=O)(=O)N2CCN(c3nc(C)cc(Nc4ccc(-c5ccccc5)cc4)n3)CC2)cc1 [Compound 1201] | – | – | 90 | 101 | –
CN(C)c1cc(Oc2ccc(F)cc2)nc(N2CCN(S(=O)(=O)c3cccc(C(F)(F)F)c3)CC2)n1 [Compound 1289] | – | – | 55 | 105 | –
N#Cc1ccc(Nc2cc(-c3cncs3)nc(N3CCN(S(=O)(=O)c4ccc(F)cc4)CC3)n2)cc1 [Compound 1380] | 10 | 108 | – | – | –
CCOC(=O)C(C)(C)Oc1ccc(S(=O)(=O)N2CCN(c3nc(C)cc(Nc4ccc(F)cc4)n3)CC2)cc1 [Compound 1404, ethyl 2-(4-((4-(4-((4-fluorophenyl)amino)-6-methylpyrimidin-2-yl)piperazin-1-yl)sulfonyl)phenoxy)-2-methylpropanoate] | 90 | 96 | – | – | –
CCOc1ccc(S(=O)(=O)N2CCN(c3nc(Nc4ccc(F)cc4)cc(C(F)(F)F)n3)CC2)cc1 [Compound 1341] | 1 | 95 | – | – | –
COc1ccc(S(=O)(=O)N2CCN(c3nc(C)cc(Nc4ccccn4)n3)CC2)cc1 [Compound 1215] | – | – | 93 | 89 | –
Cc1ccc(Nc2cc(C)nc(N3CCN(S(=O)(=O)c4cccs4)CC3)n2)cc1 [Compound 1146] | – | – | 15 | 106 | –
COc1ccc(S(=O)(=O)N2CCN(c3nc(Nc4ccc(C)cc4)cc(N(C)C(C)(C)C)n3)CC2)cc1 [Compound 1273, N^4-(tert-butyl)-2-(4-((4-methoxyphenyl)sulfonyl)piperazin-1-yl)-N^4-methyl-N^6-(p-tolyl) pyrimidine-4,6-diamine] | – | – | 16 | 98 | –
COC(=O)CCCOc1ccc(S(=O)(=O)N2CCN(c3nc(Nc4ccc(F)cc4)cc(C(F)(F)F)n3)CC2)cc1 [Compound 1397, methyl 4-(4-((4-(4-((4-fluorophenyl)amino)-6-(trifluoromethyl)pyrimidin-2-yl)piperazin-1-yl)sulfonyl)phenoxy) butanoate] | – | 33 | – | – | 5
COc1ccc(S(=O)(=O)N2CCN(c3nc(C)cc(Nc4ccc(C)cn4)n3)CC2)cc1 [Compound 1200] | – | – | 81 | 98 | –
COc1ccc(S(=O)(=O)N2CCN(c3nc(Nc4ccc(C)cc4)cc(N4CCCCC4=O)n3)CC2)cc1 [Compound 1213] | – | – | 40 | 94 | –
COc1ccc(S(=O)(=O)N2CCN(c3nc(Nc4ccc(C)cc4)cc(N4CCCC4=O)n3)CC2)cc1 [Compound 1212] | – | – | 77 | 94 | –

Compound | activity at 10 µM ([1]; Table 9) [%] | AD38 Viability Normalized Result (CPAM/DMSO %) at 10 μM (AD38 cells; Table 9) [%] | activity at 10 µM ([1]; Table 6) [%] | AD38 Viability Normalized Result (CPAM/DMSO %) at 10 μM (AD38 cells; Table 6) [%] | AD38 Viral Load (CpAM/DMSO %) at 10 μM ([1]; Table 9) [%]
O=S(=O)(c1ccc(F)cc1)N1CCN(c2nc(Nc3ccc(F)cc3)cc(C(F)(F)F)n2)CC1 [Compound 1345] | 14 | 77 | – | – | –
COc1ccc(S(=O)(=O)N2CCN(c3nc(Nc4ccc(C)cc4)cc(-n4nccn4)n3)CC2)cc1 [Compound 1247] | – | – | 6 | 98 | –
Cc1ccc(S(=O)(=O)N2CCN(c3nc(Nc4ccc(C#N)cc4)cc(-c4cncs4)n3)CC2)cc1 [Compound 1379] | 6 | 110 | – | – | –
CCCCOc1ccc(S(=O)(=O)N2CCN(c3nc(Nc4ccc(F)cc4)cc(-c4nccs4)n3)CC2)cc1 [Compound 1359] | – | 97 | – | – | 60
O=C(O)COc1ccc(S(=O)(=O)N2CCN(c3nc(Nc4ccc(F)cc4)cc(C(F)(F)F)n3)CC2)cc1 [Compound 1399, 2-(4-((4-(4-((4-fluorophenyl)amino)-6-(trifluoromethyl)pyrimidin-2-yl)piperazin-1-yl)sulfonyl)phenoxy) acetic acid] | 43 | 93 | – | – | –
Cc1cc(Nc2ccc(C#N)cc2)nc(N2CCN(S(=O)(=O)c3ccc(OCCN(C)C)cc3)CC2)n1 [Compound 1377, 4-((2-(4-((4-(2-(dimethylamino)ethoxy)phenyl)sulfonyl)piperazin-1-yl)-6-methylpyrimidin-4-yl)amino) benzonitrile] | 1 | 15 | – | – | –
COc1ccc(S(=O)(=O)N2CCN(c3nc(Nc4ccc(C)cc4)cc(OC)n3)CC2)cc1 [Compound 1157] | – | – | 35 | 96 | –
COc1ccc(S(=O)(=O)N2CCN(c3nc(C)cc(Nc4ccc(F)cc4)n3)CC2C)cc1 (centres unmarked) [Compound 1348] | 5 | 102 | – | – | –
COc1ccc(S(=O)(=O)N2CCN(c3nc(Nc4ccc(C)cc4)cc(NC(C)C)n3)CC2)cc1 [Compound 1231] | – | – | 45 | 94 | –
Cc1ccc(S(=O)(=O)N2CCN(c3nc(Nc4ccc(F)cc4)cc(N(C)C)n3)CC2)cc1 [Compound 1306] | – | – | 22 | 103 | –
CC(C)(Oc1ccc(S(=O)(=O)N2CCN(c3nc(Nc4ccc(F)cc4)cc(C(F)(F)F)n3)CC2)cc1)C(=O)O [Compound 1405, 2-(4-((4-(4-((4-fluorophenyl)amino)-6-(trifluoromethyl)pyrimidin-2-yl)piperazin-1-yl)sulfonyl)phenoxy)-2-methylpropanoic acid] | 28 | 84 | – | – | –
COCCOc1ccc(S(=O)(=O)N2CCN(c3nc(Nc4ccc(F)cc4)cc(C(F)(F)F)n3)CC2)cc1 [Compound 1407] | 12 | 91 | – | – | –
CCOC(=O)COc1ccc(S(=O)(=O)N2CCN(c3nc(C)cc(Nc4ccc(F)cc4)n3)CC2)cc1 [Compound 1385, ethyl 2-(4-((4-(4-((4-fluorophenyl)amino)-6-methylpyrimidin-2-yl)piperazin-1-yl)sulfonyl)phenoxy) acetate] | 105 | 94 | – | – | –
O=S(=O)(c1ccc(OC(F)(F)F)cc1)N1CCN(c2nc(Nc3ccc(F)cc3)cc(C(F)(F)F)n2)CC1 [Compound 1340] | 1 | 88 | – | – | –
COc1ccc(S(=O)(=O)N2CCN(c3nc(C)cc(Nc4ccc(F)cc4)n3)C(C)C2)cc1 (centres unmarked) [Compound 1371] | 29 | 111 | – | – | –
COc1ccc(S(=O)(=O)N2CCN(c3nc(C)cc(Nc4nccs4)n3)CC2)cc1 [Compound 1233] | – | – | 87 | 95 | –
Cc1ccc(S(=O)(=O)N2CCN(c3nc(C)cc(Nc4ccc(F)cc4)n3)CC2)cc1 [Compound 1339] | 50 | 93 | – | – | –
COc1ccc(S(=O)(=O)N2CCN(c3nc(C)cc(Nc4ccc5ccccc5c4)n3)CC2)cc1 [Compound 1188] | – | – | 52 | 105 | –

From patent publication US10273228B2, “Hepatitis B viral assembly effectors” (Indiana University Research and Technology Corporation, priority 2015, dated 2019)
